From US8968709B2, “Therapeutic dental composition and related methods” (3M Innovative Properties Company, priority 2007, dated 2015)
Values after ≈ are worked out from the molar mass of the structure shown. Read-outs that look alike come from different tables or passages of the source.

Columns and labels:
Type in all cases: cell-based
[1] = system: Staphylococcus aureus (strain ATCC 6538); assay: Minimum Inhibitory Concentration (MIC) Test, S. aureus; settings: tryptic soy broth, 37° C., 24 hours, "none" = no inhibitory activity detected
Procedure: (§1) The MIC Test was carried out using successively lower concentrations of compounds. Sterile tryptic soy broth (50 microliters; TSB, available from BD Dfico, Becton, Dickinson and Company, Franklin Lakes, N.J.) was deposited into each well of a sterile polystyrene 96-well microtiter plate. Into each well in the first (leftmost) column of the plate, there was then deposited a 50 microliter aliquot (of known concentration) of a compound (I.e., a compound of Formula I, or a pharmaceutically acceptable salt thereof, or comparative compound). A 50 microliter aliquot of the mixture in the first (leftmost) well in the first row of the plate was transferred to the second well in the first row. A 50 microliter aliquot of the mixture in the second well in the first row was then transferred to the third well in the first row. The compound was successively diluted (1:1 dilution at each step) by transferring a 50 microliter aliquot from one well into the next well, across the row of the plate. This procedure was repeated for each row of the plate. Then, an overnight culture of Streptococcus mutans (strain ATCC 25175) was diluted 1:100 into sterile tryptic soy broth. A 50 microliter aliquot of the diluted S. mutans culture (10^5 CFU) was deposited into each well of the microtiter plate. The plate was then incubated at 37° C. for 24 hours in a sealed humidified chamber. The plate was then visually inspected to determine the lowest concentration of compound at which no bacterial growth was visible. This value was considered to be the minimum inhibitory concentration (MTC) for the compound. The test was repeated using Staphylococcus aureus (strain ATCC 6538) and Pseudomonas aeruginosa (strain ATCC 9027) in place of S. mutans. A sample of each of the compounds of Formulae II, III, IV, V, and VI (0.050 g each) was dissolved in water (5 g). Each of the samples was evaluated using the Minimum Inhibitory Concentration (MIC) Test described above with S. mutans, S. aureus, and P. aeruginosa. In Table 3, “none” means that no inhibitory activity was detected.

[2] = system: Streptococcus mutans (ATCC 25175) biofilm; assay: Qualitative Biofilm Inhibition Test (visual examination of discs); design: key: +: a visual assessment that a compound inhibited biofilm formation; −: a visual assessment that either a compound did not inhibit biofilm formation, or that bacteria grew in the culture broth; settings: visible biofilm on cured composite disc after incubation and water rinse; 1 weight percent compound, 1.0 weight percent sucrose
Procedure: During the procedure for the Quantitative Biofilm Inhibition Test, each cured disc was visually examined after it was removed from the broth (and rinsed with water) and before it was placed in a test tube containing five milliliters of 1M aqueous sodium hydroxide solution. The presence or absence of visible biofilm on a disc was noted. The Biofilm Inhibition Test was carried out using compounds of the dental composition. […] In addition, a qualitative determination of biofilm formation was made for each Example and the Comparative Example in which each disc was visually examined before it was placed in the tube containing the aqueous sodium hydroxide solution.

[3] = system: Pseudomonas aeruginosa (strain ATCC 9027); assay: Minimum Inhibitory Concentration (MIC) Test, P. aeruginosa; settings: 37° C., 24 hours, "none" = no inhibitory activity detected
Procedure: as §1

[4] = system: Streptococcus mutans (ATCC 25175) biofilm; assay: Quantitative Biofilm Inhibition Test; settings: average optical density at 550 nm as percentage of control; 1 weight percent compound, 1.0 weight percent sucrose in brain heart infusion broth, 37° C., approximately twenty hours, five discs
Procedure: Compounds of the dental compositions of the invention, and comparative compounds, were evaluated for biofilm inhibition activity. Composite dental restorative (available under the trade designation “FILTEK SUPREME” from 3M ESPE Dental Products, St. Paul, Minn.) was placed in a 15 millimeter by 1 millimeter stainless steel die. The open ends of the die were then covered with polyester film and the die was subjected to a pressure of 68.95 MPa using a hydraulic press. While the die containing the composite restorative was under compression, the composite was irradiated for two minutes using a Model ACE light source (available from SCHOTT North America, Inc., Auburn, N.Y.). The discs of cured composite restorative were then further cured using a Model UniXS light box (available from Heraeus Kulzer, Inc., Armonk, N.Y.) for 1.5 minutes.
The cured discs of composite restorative were then immersed in ten milliliters of Streptococcus mutans culture (ATCC 25175; 10^6 CFU/mL) prepared in brain heart infusion broth that contained 1.0 weight percent sucrose and 1 weight percent of a compound of the dental composition. The samples were incubated at 37° C. for approximately twenty hours, after which time the cured discs were removed from the broth and were gently rinsed with water. Each disc was placed in a separate test tube containing five milliliters of 1M aqueous sodium hydroxide solution, and each test tube was then sonicated for two minutes using a model SH1012-40-8 ultrasonic generator (manufactured by Branson Ultrasonics Corp., Danbury, Conn.) for two minutes to dislodge biofilm on the disc. The optical absorbance (optical density) of each aqueous sodium hydroxide solution was then measured at 550 nm using a Model ULTROSPEC III UV-visible spectrophotometer (manufactured by Pharmacia AB, Uppsala, Sweden). For each compound of the dental composition, five discs were separately incubated in broth and were evaluated separately to provide five optical density measurements. The average of the five optical density measurements was then calculated. […] The average optical density of the control or comparative samples was determined as described above. The ratio, expressed as a percentage, of the average optical density for each compound sample to the average optical density for a control sample was calculated by dividing the average optical density for each compound sample by the average optical density for a control sample and multiplying the result by one hundred. The ratio was considered to be proportional to the average amount of biofilm on the five cured discs, i.e., relatively low average optical density ratio was considered to be indicative of inhibition of biofilm formation. The ratio for the control was 100%.
The Biofilm Inhibition Test was carried out using compounds of the dental composition. […] In addition, a qualitative determination of biofilm formation was made for each Example and the Comparative Example in which each disc was visually examined before it was placed in the tube containing the aqueous sodium hydroxide solution.

[5] = system: Streptococcus mutans (strain ATCC 25175); assay: Minimum Inhibitory Concentration (MIC) Test, S. mutans; settings: 37° C., 24 hours, "none" = no inhibitory activity detected
Procedure: as §1

[6] = system: Streptococcus mutans (ATCC 25175) biofilm; assay: Biofilm Inhibition Test: concentration of compound to inhibit biofilm formation at varied sucrose
[7] = Streptococcus mutans, ATCC25175, tryptic soy broth, read-out: MIC

Structure (SMILES) | MIC [1] | MIC ([3]; tryptic soy broth) | MIC ([5]; tryptic soy broth) | MIC [5, 7] [µg/mL] | MIC ([3]; Pseudomonas aeruginosa, ATCC9027, tryptic soy broth, read-out: MIC) [µg/mL] | Visual Assessment [2] | OD Ratio [4] [%] | Concentration of Compound to Inhibit Biofilm Formation ([6]; 1 wt % Sucrose) [mM] | Concentration of Compound to Inhibit Biofilm Formation ([6]; 2.5 wt % Sucrose) [mM] | Concentration of Compound to Inhibit Biofilm Formation ([6]; 5 wt % Sucrose) [mM]
CCCCCCCC(=O)N(C)C[C@H](O)[C@@H](O)[C@H](O)[C@H](O)CO [N-Methyl-N-octanoyl-D-glucamine, N-methyl-N-octanoyl-D-glucamine] | none | none | none |  |  | + | 0 |  |  | 
CCCCCCCCC(=O)N(C)C[C@H](O)[C@@H](O)[C@H](O)[C@H](O)CO [N-Methyl-N-nonanoyl-D-glucamine, N-methyl-N-nonanoyl-D-glucamine] | none | none |  | 2500 (≈ 7.45 mM) |  | + | 0 |  |  | 
NC[C@H](O)[C@@H](O)[C@H](O)[C@H](O)CO [D-Glucamine, D-glucamine] | none | none | none |  |  | + | 101.5 |  |  | 

Continued, in another order:

MIC [1] | MIC ([3]; tryptic soy broth) | MIC ([5]; tryptic soy broth) | MIC [5, 7] [µg/mL] | MIC ([3]; Pseudomonas aeruginosa, ATCC9027, tryptic soy broth, read-out: MIC) [µg/mL] | Structure (SMILES) | Visual Assessment [2] | OD Ratio [4] [%] | Concentration of Compound to Inhibit Biofilm Formation ([6]; 1 wt % Sucrose) [mM] | Concentration of Compound to Inhibit Biofilm Formation ([6]; 2.5 wt % Sucrose) [mM] | Concentration of Compound to Inhibit Biofilm Formation ([6]; 5 wt % Sucrose) [mM]
none | none | none |  |  | CNC[C@H](O)[C@@H](O)[C@H](O)[C@H](O)CO [N-Methyl-D-glucamine, N-methyl-D-glucamine] | + | 0 | 50 | 50 | 50
2.50 |  |  | 1250 (≈ 3.58 mM) | 2500 (≈ 7.15 mM) | CCCCCCCCCC(=O)N(C)C[C@H](O)[C@@H](O)[C@H](O)[C@H](O)CO [N-Methyl-N-decanoyl-D-glucamine, N-methyl-N-decanoyl-D-glucamine] | + | 0 |  |  | 
